{
  "source": "patent US20110160213A1",
  "about": "“PHARMACEUTICAL COMPOSITIONS FOR THE TREATMENT OF INFLAMMATORY AND ALLERGIC DISORDERS” (Glenmark Pharmaceuticals, S.A., priority 2007, published 2011)",
  "experiment": "Solubility by shake flask method in various media",
  "assay_type": "physicochemical",
  "conditions": "for Solubility: about 37° C., after 24 hours",
  "data": [
    {"smiles": "O=C(Nc1c(Cl)c[n+]([O-])cc1Cl)c1ccc(OC(F)F)c2oc3ccncc3c12.[Na]", "note": "[3,5-dichloro-4-(6-difluoromethoxybenzo[4,5]furo[3,2-c]pyridin-9-ylcarboxamido)-1-pyridiniumolate, sodium salt]", "values": [
      {"measurement": "Solubility", "setting": "0.1N HCl with 1% sodium lauryl sulphate", "result": 8.81, "unit": "mg/250 ml"},
      {"measurement": "Solubility", "setting": "0.1N HCl", "result": 9.17, "unit": "mg/250 ml"},
      {"measurement": "Solubility", "setting": "Acetate buffer pH 4.5", "result": 1.69, "unit": "mg/250 ml"},
      {"measurement": "Solubility", "setting": "Acetate buffer pH 4.5 with 0.1% SLS", "result": 4.81, "unit": "mg/250 ml"},
      {"measurement": "Solubility", "setting": "Citrate buffer pH 3.0", "result": 6.02, "unit": "mg/250 ml"},
      {"measurement": "Solubility", "setting": "Citrate buffer pH 3.0 with 1% Triton X", "result": 8.6, "unit": "mg/250 ml"},
      {"measurement": "Solubility", "setting": "Water", "result": 0.68, "unit": "mg/250 ml"},
      {"measurement": "Solubility in water (in words)", "setting": "water", "result": "poor solubility in water"}
    ]}
  ]
}
